Values of other authors as cited in patent publication US20210369601A1, “Pharmaceutical Formulation” (Klaria Pharma Holding AB, priority 2018, published 2021).

Conditions: aqueous solution

pH of acceptable stability: < 5.5
pH of optimal stability: 3-4
SMILES: CNCC(O)c1ccc(O)c(O)c1 (centres unmarked) [adrenaline]
